We go through two compounds from patent publication US20140113945A1, “Novel Pyrrole Inhibitors of S-Nitrosoglutathione Reductase as Therapeutic Agents for Liver Toxicity” (priority 2011, published 2014).

Read-outs that look alike come from different tables or passages of the source. Marks after values point to notes of the source that are not given here.

The subject of this data set is acetaminophen (APAP) induced liver toxicity. Conditions: for mean ALT / mean AST / increase in ALT compared to control saline group / increase in AST compared to control saline group / reduction in ALT compared to APAP only / reduction in AST compared to APAP only: mice; for mean ALT / mean AST: substance IV + APAP 300 mg/kg PO; for increase in ALT compared to control saline group / increase in AST compared to control saline group / reduction in ALT compared to APAP only / reduction in AST compared to APAP only: substance IV after APAP 300 mg/kg PO, 24-hour; for Alkaline phosphatase (ALK) levels: mouse, in vivo.

`Cc1cc(C(N)=O)ccc1-n1c(CCC(=O)O)ccc1-c1ccc(Cl)cc1O` [Compound 41]: the “increase in ALT compared to control saline group” value was 43 fold, the “increase in AST compared to control saline group” value came to 29 fold, the “reduction in ALT compared to APAP only” value turned out to be 23% and the “reduction in AST compared to APAP only” value is 34%. Also, the “Alkaline phosphatase (ALK) levels” value is “did not significantly differ from normal controls”. Further, under “24-hours post-APAP”, the “mean ALT” value was found to be 4749.4 and the “mean AST” value was 3783.6. For the same compound, under “72-hours post-APAP”, the “mean ALT” value is reported as 97.6 and the “mean AST” value is 492.6. Besides, for the setting “6 hours post-APAP”, the “mean ALT” value is reported as 3608.0 and the “mean AST” value stood at 3741.2.
Consider `N[C@@H](CCC(=O)N[C@@H](CSN=O)C(=O)NCC(=O)O)C(=O)O` [GSNO, S-nitrosoglutathione], for which the “increase in ALT compared to control saline group” value is given as about 5 fold, the “increase in AST compared to control saline group” value is on record as about 4 fold, the “reduction in ALT compared to APAP only” value came out at 76% and the “reduction in AST compared to APAP only” value is recorded as 91%. Further, the “Alkaline phosphatase (ALK) levels” value was “did not significantly differ from normal controls”. Moreover, for the setting “24-hours post-APAP”, the “mean ALT” value is 1454.3 and the “mean AST” value is 518.0*. Under “72-hours post-APAP”, the “mean ALT” value is 31.8* and the “mean AST” value is given as 55.0*. Moreover, for the setting “6 hours post-APAP”, the “mean ALT” value is on record as 571.8* and the “mean AST” value was 484.5*.
